These results are taken from US20120302546A1, “NOVEL SULFAMIDES EXHIBITING NEUROPROTECTIVE ACTION AND METHODS FOR USE THEREOF” (FOX CHASE CHEMICAL DIVERSITY CENTER, INC., priority 2010, published 2012).

Molecules are shown by their SMILES.

For assay [1], the system named is 6 Hz corneal stimulation evoked seizures. Kind of assay: 6 Hz psychomotor seizure test in mice. The assay is classed as in vivo. The settings on record: Mouse 6 Hz, 100 mg/kg, intraperitoneal, vehicle methylcellulose. How it is done:
Methods to measure anticonvulsant activity: All tests were conducted by the Anticonvulsant Screening Program (ASP) of the National Institute of Neurological Disease and Stroke at the National Institutes of Health. The 6 Hz Seizure Test: Compounds were further tested in the 6-Hz psychomotor seizure model (Barton et al., 2001). This model is used to detect seizures that may be useful for the treatment of therapy-resistant partial seizures. For this test, an alternative electrical stimulation paradigm is used with a low frequency (6 Hz), long duration (3 seconds) corneal stimulation. The seizure evoked by this low frequency stimulation is characterized by immobility, forelimb clonus, Straub tail and facial automatisms (Barton et al., 2001). Mice are tested from 15 min to 4 hours following an intraperitoneal dose of 100 mg/kg. Abolition of the clonic seizures indicates the ability of a compound to prevent partial or psychomotor seizures.

The subject of assay [2] is MES-induced seizure spread. Kind of assay: Maximal Electroshock Seizure (MES) test in rats. The settings on record: Rat MES, 30 mg/kg, oral, vehicle methylcellulose. The assay is classed as in vivo. The method, then: (§1) Methods to measure anticonvulsant activity: All tests were conducted by the Anticonvulsant Screening Program (ASP) of the National Institute of Neurological Disease and Stroke at the National Institutes of Health. The Maximal Electroshock Seizure (MES) or Maximal Seizure Pattern Test: The MES is a model for generalized tonic-clonic seizures (Putnam and Merritt, 1937). It is highly reproducible with consistent endpoints. The behavioral and electrographic seizures generated in this model are consistent with the human disorder. This model identifies those compounds which prevent seizure spread. In the MES test, an electrical stimulus of 0.2 s in duration (50 mA in mice and 150 mA in rat at 60 Hz) is delivered via corneal electrodes primed with an electrolyte solution containing an anesthetic agent. Mice are tested at 30 minutes and 4 hours following doses of 30, 100 and 300 mg/kg of test compound. Test compounds are administered intraperitoneally to the mice. Rats are tested at time intervals between 0.25 and 4 hours following a standard oral dose of 30 mg/kg. Abolition of the hindlimb tonic extensor component indicates the test compound's ability to inhibit MES-induced seizure spread.
On the technique in general: Protection in the maximal electroshock model is a classic sign of anticonvulsant action.

In assay [3] the test system is MES-induced seizure spread. Kind of assay: Maximal Electroshock Seizure (MES) test in mice. Format: in vivo. The settings on record: Mouse MES, intraperitoneal, vehicle methylcellulose. How it is done: as §1
Assay [4] relates to Hippocampal Cultures. In words: Neuroprotection from glutamate excitotoxicity, propidium iodide cell death assay. The assay is classed as cell-based, rat. Particulars: Day 15 Hippocampal Cultures, 30 μM glutamate (FIG. 5).
In assay [5] the test system is Hippocampal Cultures. Kind of assay: Neuroprotection from glutamate excitotoxicity, CFDA neuronal viability assay. Format: cell-based, rat. Particulars: day 20 hippocampal cultures, 5 min 30 μM glutamate, CFDA assay 24 hours after initiation of treatment (FIG. 1-3). How it is done:
Pharmacology: Hydroxyethyl sulfamides attenuate glutamate-mediated neuronal viability. As an example, compound II, shown above, is shown to attenuate a decrease in carboxyfluorescein diacetate (CFDA) produced by acute treatment with glutamate in FIG. 1. For these studies, day 20 hippocampal cultures derived from E18 rats were treated for 5 min with 30 μM glutamate. Following removal of the glutamate, cultures were treated with various concentrations of compound II and the CFDA neuronal viability assay was conducted 24 hours after the initiation of treatment. The dotted line labeled “control” represents the mean CFDA value for control culture receiving no treatment. The dotted line labeled “carisbamate” represents the mean CFDA value for the reference compound carisbamate, a putative neuroprotective, anticonvulsant. For the CFDA measurements, RFU is the abbreviation for relative fluorescent units. The reference anticonvulsant compound carisbamate was tested at 100 μM, as lower concentrations were ineffective.
Cell cultures: All compounds are screened with dissociated hippocampal cultures derived from embryonic day 18 rats as the primary test system. With this preparation, primary neurons are used to test for toxicity as well as neuroprotection in a highly relevant experimental system to epilepsy. In brief, hippocampal tissue are obtained commercially through Brain Bits (Springfield, Ill.) and cultures prepared as previously described by Brewer (Brewer, G. J. Serum-free B27/neurobasal medium supports differentiated growth of neurons from the striatum, substantia nigra, septum, cerebral cortex, cerebellum and dentate gyms, J. Neurosci. Res. 1995, 42, 674-683.). The hippocampal neurons are platted at low density (10,000 cell/well) in a 96-well format and maintained in serum-free medium consisting of Neurobasal Medium supplemented with B27 and GlutaMAX (Gibco). Pre-coated poly-L-lysine coated plates are used because of the preferential adherence and survival of hippocampal neurons on this matrix support.
Carboxyfluorescein (CFDA) was used a vital stain for all cell toxicity and neuroprotection studies. With the use of the CytoFluor fluorimeter, the CFDA assay was employed to assess the viability of neurons. CFDA is a dye that becomes fluorescent upon cell entry and cleavage by cytosolic esterases (Petroski, R. E.; Geller, H. M Selective labeling of embryonic neurons cultures on astrocyte monolayers with 5(6)-carboxyfluorescein diacetate (CFDA). J. Neurosci. Methods 1994, 52, 23-32.). Neuronal specificity is obtained relative to astrocytes because the cleaved dye is extruded extracellularly by glia with time, while dye in neurons remains intracellular. […] To further assess the culture responses, a propidium iodide method was used as previously described (Sarafian, T. A.; Kouyoumjian, S.; Tashkin, D.; Roth, M. D. Synergistic cytotoxicity of 9-tetrahydrocannabianol and butylated hydroxyanisole, Tox. Letters, 2002. 133, 171-179.) to measure the number of dead cells. Propidium iodide becomes fluorescent when binding to the DNA of dead cells. Cultures were treated on day 2 with the test agent and then the two assays were conducted after a […] test period. For all assays, a 96-well format was used. For the screen, log concentration-effect studies were conducted from 10 nM to 1 mM with 8 replications. The duration of the test period was five days. Cultures were given a complete change of medium prior to the initiation of the treatment period.
Potent neuroprotection is the distinguishing characteristic that separates this program's anticonvulsants from all other commercial drugs for epilepsy. The experimental details and the rationale for the implemented assays are essential in differentiating these compounds from that of others. The central objective of all neuroprotective assays was their relevancy to excitotoxicity and oxidative stress related to epilepsy. […]

As for `NS(=O)(=O)NCC(O)c1ccccc1F` (stereo not shown) [drawing 55], the “# animals active/# animals tested” value in assay [1] (0.25 hr) is reported as 0/4; in assay [1] (0.5 hr), 1/4; in assay [1] (1.0 hr) it was 1/4; in assay [1] (2.0 hr), 1/4; in assay [1] (4.0 hr) it was 1/4; in assay [2] (1 hr), 0/4. In addition, the “# animals active/# animals tested” value in assay [2] (2 hr) is reported as 1/4; in assay [2] (4 hr), 2/4; in assay [3] (30 mg/kg, 4 hr), 0/1; in assay [3] (100 mg/kg, 4 hr), 1/3; in assay [3] (300 mg/kg, 4 hr), 1/1.

Take `NS(=O)(=O)NC[C@@H](O)c1ccccc1Cl` [drawing 54]: the “# animals active/# animals tested” value is 0/4 in assay [1] (0.25 hr); 1/4 in assay [1] (0.5 hr); 1/4 in assay [1] (1.0 hr); 0/4 in assay [1] (2.0 hr); 1/4 in assay [2] (0.25 hr); 0/4 in assay [2] (0.5 hr). Also, the “# animals active/# animals tested” value is given as 0/1 in assay [3] (30 mg/kg, 0.5 hr); 2/3 in assay [3] (100 mg/kg, 0.5 hr); 1/1 in assay [3] (300 mg/kg, 0.5 hr).

Take `NS(=O)(=O)NC[C@@H](O)c1ccccc1Cl` [compound III]: in the assay with Hippocampal Cultures [4], the “effect on glutamate-mediated increase in cell death (propidium iodide)” value is recorded as “efficacious”. In the assay with Hippocampal Cultures [5], the “effect on glutamate-mediated decrease in neuronal viability (CFDA)” value is “efficacious”.
